Assays:
CASOB (Sicklepod) = assay: Postemergence herbicidal evaluation; format: in vivo, Cassia obtusifolia; conditions: postemergence
Procedure, shortened: (§1)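 Visual 0-9 injury score (stand, vigor, malformation, size, chlorosis, appearance vs untreated) taken four to five weeks post-spray, averaged across repeat tests. Test plants about two weeks old; foliar spray of acetone/water (1:1) with 0.5% surfactant delivering ~0.0156-0.500 kg active/ha.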

ZEAMX (Corn, Field) = assay: Preemergence herbicidal evaluation; format: in vivo, Zea mays; conditions: rated 4-5 weeks after treatment
Procedure, shortened: (§2)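 In this greenhouse assay, monocot and dicot seeds are planted in soil and treated prior to emergence with an aqueous acetone spray (about 0.0156-0.500 kg/ha). Plants are assessed visually against control on a 0-9 scale after 4-5 weeks.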

ORYSAT (Rice, Tebonnet) [1] = assay: Preemergence herbicidal evaluation; format: in vivo, Oryza sativa, (L.) Tebonnet; conditions: rated 4-5 weeks after treatment
Procedure, shortened: as §2

[2] = system: TRZAWR (Wheat, Winter, cv Riband); assay: Preemergence herbicidal evaluation; format: in vivo, Triticum aestivum; conditions: rated 4-5 weeks after treatment
Procedure, shortened: as §2

GALAP (Galium) = assay: Preemergence herbicidal evaluation; format: in vivo, Galium aparine; conditions: rated 4-5 weeks after treatment
Procedure, shortened: as §2

[3] = system: CHEAL (Lambsquarters, Common); assay: Postemergence herbicidal evaluation; format: in vivo, Chenopodium album; conditions: postemergence
Procedure, shortened: as §1

CYPSE (Flatsedge) = assay: Postemergence weed control under flooded paddy conditions; format: in vivo, Cyperus serotinus; conditions: postemergence weeds, rated 3 to 4 weeks after treatment
Procedure, shortened: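 Containers holding 3–5 cm weeds and rice at 1.5–2.5 leaves are flooded to 1.5–3 cm above soil. Compound in 50/50 v/v aqueous/acetone is then added directly to the water, about 0.0313–0.500 kg/ha. Plants are kept in the greenhouse and rated 0–9 visually at 3–4 weeks.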

MOOVA (Monochoria) = assay: Preemergence weed control under flooded paddy conditions; format: in vivo, Monochoria vaginalis; conditions: rated 3-4 weeks after treatment
Procedure, shortened: (§3)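 Silt loam, seeds in top 0.5 cm; flood held 1.5-3 cm; test cpd as acetone/water 50/50 into flood water, ~0.0313-0.500 kg/ha a.i.; greenhouse 3-4 wk; visual 0-9 score vs control.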

ECHCG (Barnyardgrass) = assay: Postemergence herbicidal evaluation; format: in vivo, Echinochloa crus-galli; conditions: postemergence
Procedure, shortened: as §1

CYPIR (Rice Flatsedge) = assay: Preemergence weed control under flooded paddy conditions; format: in vivo, Cyperus iria; conditions: rated 3-4 weeks after treatment
Procedure, shortened: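 Flooded-pot preemergence screen with silt loam and seeds in the upper 0.5 cm. Dose about 0.0313 to 0.500 kg/ha, delivered into flood water; visual 0-9 score after 3 to 4 weeks.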

ORYSAT (Rice, Tebonnet) [4] = assay: Postemergence herbicidal evaluation; format: in vivo, Oryza sativa, (L.) Tebonnet; conditions: postemergence
Procedure, shortened: as §1

[5] = system: SAGPY (Arrowhead (Pygmaea)); assay: Preemergence weed control under flooded paddy conditions; format: in vivo, Sagittaria pygmaea; conditions: rated 3-4 weeks after treatment
Procedure, shortened: as §3

SETVI (Foxtail, Green) = assay: Preemergence herbicidal evaluation; format: in vivo, Setaria viridis; conditions: rated 4-5 weeks after treatment
Procedure, shortened: as §2

[6] = system: GLXMAW (Soybean, Williams); assay: Preemergence herbicidal evaluation; format: in vivo, Glycine max, (L.) Merr. cv Williams; conditions: rated 4-5 weeks after treatment
Procedure, shortened: as §2

C=CCOC(=O)CC1SC(=Nc2cc(-n3c(=O)cc(C(F)(F)F)n(C)c3=O)c(F)cc2Cl)N(CC=C)C1=O (stereo not drawn) [Compound 65, Allyl 3-allyl-2-{(2-chloro-5-[3,6-dihydro-3-methyl-2,6-dioxo-4-(trifluoromethyl)-1(2H)-pyrimidinyl]-4-fluorophenyl}imino}-4-oxo-5-thiazolidineacetate]
7.0: ECHCG herbicidal rating (ECHCG (Barnyardgrass); rate 0.0315 kg/ha) | ECHCG herbicidal rating (ECHCG (Barnyardgrass); rate 0.0630 kg/ha) | CYPIR herbicidal effect rating (CYPIR (Rice Flatsedge); 0.0625 kg/ha) | CYPIR herbicidal effect rating (CYPIR (Rice Flatsedge); 0.1250 kg/ha) | SAGPY herbicidal effect rating ([5]; 0.2500 kg/ha) | Preemergence herbicidal rating SETVI (SETVI (Foxtail, Green); rate 0.1250 kg/ha)
4.0: Preemergence herbicidal rating ZEAMX (ZEAMX (Corn, Field); rate 0.2500 kg/ha) | ORYSAT herbicidal rating (ORYSAT (Rice, Tebonnet) [4]; rate 0.0158 kg/ha) | SAGPY herbicidal effect rating ([5]; 0.0625 kg/ha)
0.0: CASOB herbicidal rating (CASOB (Sicklepod); rate 0.0158 kg/ha) | Preemergence herbicidal rating ZEAMX (ZEAMX (Corn, Field); rate 0.0156 kg/ha) | Preemergence herbicidal rating ZEAMX (ZEAMX (Corn, Field); rate 0.0313 kg/ha) | Preemergence herbicidal rating ORYSAT (ORYSAT (Rice, Tebonnet) [1]; rate 0.0156 kg/ha) | Preemergence herbicidal rating ORYSAT (ORYSAT (Rice, Tebonnet) [1]; rate 0.0313 kg/ha) | Preemergence herbicidal rating TRZAWR ([2]; rate 0.0313 kg/ha) | Preemergence herbicidal rating GALAP (GALAP (Galium); rate 0.0156 kg/ha) | Preemergence herbicidal rating GALAP (GALAP (Galium); rate 0.0313 kg/ha) | Preemergence herbicidal rating GALAP (GALAP (Galium); rate 0.0625 kg/ha) | Herbicidal rating CYPSE (CYPSE (Flatsedge); Rate 0.0313 kg/ha) | Herbicidal rating CYPSE (CYPSE (Flatsedge); Rate 0.0625 kg/ha) | Herbicidal rating CYPSE (CYPSE (Flatsedge); Rate 0.1250 kg/ha) | Herbicidal rating CYPSE (CYPSE (Flatsedge); Rate 0.2500 kg/ha) | Preemergence herbicidal rating SETVI (SETVI (Foxtail, Green); rate 0.0156 kg/ha) | Preemergence herbicidal rating GLXMAW ([6]; rate 0.0313 kg/ha)
8.0: CYPIR herbicidal effect rating (CYPIR (Rice Flatsedge); 0.2500 kg/ha)
5.0: SAGPY herbicidal effect rating ([5]; 0.1250 kg/ha) | Preemergence herbicidal rating GLXMAW ([6]; rate 0.2500 kg/ha)
3.0: CASOB herbicidal rating (CASOB (Sicklepod); rate 0.0630 kg/ha) | Preemergence herbicidal rating TRZAWR ([2]; rate 0.2500 kg/ha) | ECHCG herbicidal rating (ECHCG (Barnyardgrass); rate 0.0158 kg/ha)
2.0: CASOB herbicidal rating (CASOB (Sicklepod); rate 0.0315 kg/ha) | Preemergence herbicidal rating ZEAMX (ZEAMX (Corn, Field); rate 0.1250 kg/ha) | SAGPY herbicidal effect rating ([5]; 0.0313 kg/ha) | Preemergence herbicidal rating SETVI (SETVI (Foxtail, Green); rate 0.0625 kg/ha) | Preemergence herbicidal rating GLXMAW ([6]; rate 0.1250 kg/ha)
1.0: Preemergence herbicidal rating ZEAMX (ZEAMX (Corn, Field); rate 0.0625 kg/ha) | Preemergence herbicidal rating ORYSAT (ORYSAT (Rice, Tebonnet) [1]; rate 0.0625 kg/ha) | Preemergence herbicidal rating ORYSAT (ORYSAT (Rice, Tebonnet) [1]; rate 0.1250 kg/ha) | Preemergence herbicidal rating TRZAWR ([2]; rate 0.0625 kg/ha) | Preemergence herbicidal rating TRZAWR ([2]; rate 0.1250 kg/ha) | Preemergence herbicidal rating GALAP (GALAP (Galium); rate 0.1250 kg/ha) | Preemergence herbicidal rating SETVI (SETVI (Foxtail, Green); rate 0.0313 kg/ha) | Preemergence herbicidal rating GLXMAW ([6]; rate 0.0156 kg/ha) | Preemergence herbicidal rating GLXMAW ([6]; rate 0.0625 kg/ha)
9.0: Preemergence herbicidal rating GALAP (GALAP (Galium); rate 0.2500 kg/ha) | CHEAL herbicidal rating ([3]; rate 0.0158 kg/ha) | CHEAL herbicidal rating ([3]; rate 0.0315 kg/ha) | CHEAL herbicidal rating ([3]; rate 0.0630 kg/ha) | MOOVA herbicidal effect rating (MOOVA (Monochoria); 0.0313 kg/ha) | MOOVA herbicidal effect rating (MOOVA (Monochoria); 0.0625 kg/ha) | MOOVA herbicidal effect rating (MOOVA (Monochoria); 0.1250 kg/ha) | MOOVA herbicidal effect rating (MOOVA (Monochoria); 0.2500 kg/ha) | Preemergence herbicidal rating SETVI (SETVI (Foxtail, Green); rate 0.2500 kg/ha)
6.0: Preemergence herbicidal rating ORYSAT (ORYSAT (Rice, Tebonnet) [1]; rate 0.2500 kg/ha) | CYPIR herbicidal effect rating (CYPIR (Rice Flatsedge); 0.0313 kg/ha) | ORYSAT herbicidal rating (ORYSAT (Rice, Tebonnet) [4]; rate 0.0315 kg/ha) | ORYSAT herbicidal rating (ORYSAT (Rice, Tebonnet) [4]; rate 0.0630 kg/ha)
